Where two headings read alike, the source gives them in different places. Numbered stars: 1 amine (or outer) side, 2 acyl side, 3 side chain; on linkers, the order of the positions; unused ones are H or OH. Bridge positions count the residues as written; N and C are the ends. Square brackets hold non-standard residues; d marks the D form. Peptide text beside a SMILES is read from it. * marks the point of attachment. C20 diacid = O=C(O)CCCCCCCCCCCCCCCCCCC(=O)*; γGlu = O=C(O)[C@H](CCC(=O)[*:2])N[*:1]; NMeI = CC[C@H](C)[C@H](NC)C(=O)O; Sar = CNCC(=O)O
Columns and labels:
[1] = Assessment of chemical stability: normalized purity by RP-HPLC after incubation at 40 °C; type: physicochemical; conditions: normalized purity (T=0 set to 100), 0.2 mg/ml
Method in brief: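 Peptides at 0.2 mg/ml in water adjusted to pH 4, 7.5 or 9, held at 40 °C for 7 days. Purity by RP-HPLC (C8/ammonium formate or C18/TFA gradients), UV 220 nm, as main-peak area-%; normalized to T=0 set as 100 for each pH.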

[2] = Pharmacokinetics of test compounds in mice; type: in vivo; conditions: female, NMRI, mouse, plasma; for bioavailability: AUCinf (sc) / AUCinf (iv) x 100, 100 nmol/kg (Pramlintide 400 nmol/kg); for half-life: 100 nmol/kg (Pramlintide 400 nmol/kg)
Experimental: NMRI mice (supplier: Taconic; females with a body weight of approximately 25 g) were given either a single subcutaneous (sc) bolus or a single intravenous (iv) bolus of each peptide to be tested.
Following sc administration of test peptide (Compound 176, 1 or 18) (100 nmol/kg), blood samples were drawn 0.5, 2, 4, 8, 18, 40 and 56 hours post-dosing by eye bleeding. Following iv administration of Compound 176, 1 or 18 (100 nmol/kg), blood samples were drawn 0.08, 0.17, 0.5, 2, 8, 18 and 30 hours post-dosing by eye bleeding. The dosing vehicle used for each test peptide was a mannitol-containing histidine buffer (pH 7.0).
Pramlintide (400 nmol/kg) was also administered as a single sc bolus or as a single iv bolus to mice. Following sc administration, blood samples were drawn 5, 15, 20, 30, 60, 120, 180 and 240 minutes post-dosing by sublingual bleeding. Following iv administration, blood samples were drawn 5, 10, 15, 30, 60, 120, 180, and 240 minutes post-dosing by sublingual bleeding. The dosing vehicle used for Pramlintide was a mannitol-containing acetate buffer (pH 4.0).
Blood samples were taken from two mice at each time point, i.e. 14-16 mice were included for each compound. The mice were euthanized immediately after blood sampling by cervical dislocation. Plasma samples were analyzed after solid-phase extraction (SPE) by liquid chromatography mass spectrometry (LC-MS/MS). Mean plasma concentrations were used for calculation of the pharmacokinetic parameters using the non-compartmental approach in Phoenix WinNonlin 6.3.
Plasma terminal elimination half-life (t½) was determined as In(2)/λz, where λz is the magnitude of the slope of the log linear regression of the log concentration versus time profile during the terminal phase.
Bioavailability was determined as AUCinf (sc) / AUCinf (iv) x 100, where AUCinf is the area under the plasma concentration - time curve extrapolated to infinity (AUCinf = AUClast + Clast/λz, where Clast is the last observed plasma concentration).

[3] = single iv bolus, read-out: t½ (hours) iv (converted)
[4] = single sc bolus, read-out: t½ (hours) sc (converted)

| Structure (SMILES) | Chem. stability; 7 days, 40°C pH 4 ([1]; pH 4, 7 days) [area-%] | Chem. stability; 7 days, 40°C pH 7.5 ([1]; pH 7.5, 7 days) [area-%] | Chem. stability; 7 days, 40°C pH 9 ([1]; pH 9, 7 days) [area-%] | bioavailability [2] [%] | half-life [2, 3] [h] | half-life [2, 4] [h] |
| --- | --- | --- | --- | --- | --- | --- |
| CC[C@H](C)[C@@H](C(=O)N[C@@H](CC(C)C)C(=O)N[C@@H](CO)C(=O)N[C@@H](CO)C(=O)N[C@H](C(=O)N[C@@H](CC(N)=O)C(=O)N[C@H](C(=O)NCC(=O)N[C@@H](CO)C(=O)N[C@@H](CC(N)=O)C(=O)N[C@H](C(=O)N1CCC[C@H]1C(N)=O)[C@@H](C)O)C(C)C)[C@@H](C)O)N(C)C(=O)[C@H](C)NC(=O)CN(C)C(=O)[C@H](Cc1ccccc1)NC(=O)[C@H](CC(N)=O)NC(=O)[C@H](CC(N)=O)NC(=O)[C@H](CO)NC(=O)[C@H](CO)NC(=O)[C@H](Cc1c[nH]cn1)NC(=O)[C@H](Cc1c[nH]cn1)NC(=O)[C@H](CC(C)C)NC(=O)[C@H](Cc1ccccc1)NC(=O)[C@H](CCC(=O)O)NC(=O)[C@H](C)NC(=O)[C@H](CC(C)C)NC(=O)[C@H](CCCNC(=N)N)NC(=O)[C@H](CCC(N)=O)NC(=O)[C@@H](NC(=O)[C@H](C)NC(=O)[C@@H]1CSSC[C@H](NC(=O)[C@H](CCCNC(=N)N)NC(=O)CC[C@H](NC(=O)CCCCCCCCCCCCCCCCCCC(=O)O)C(=O)O)C(=O)N[C@@H](CC(N)=O)C(=O)N[C@@H]([C@@H](C)O)C(=O)N[C@@H](C)C(=O)N[C@@H]([C@@H](C)O)C(=O)N1)[C@@H](C)O [Compound 1, [19CD]-isoGlu-RC()NTATC()ATQRLAEFLHHSSNNF-Gly(Me)-A-Ile(Me)-LSSTNVGSNTP-NH2] ({C20 diacid-γGlu}-RCNTATCATQRLAEFLHHSSNNF[Sar]A[NMeI]LSSTNVGSNTP-NH2; disulfide 2-7) | 89 | 64 | 56 | 77 | 32.9 | 34.6 |
| CC[C@H](C)[C@@H](C(=O)N[C@@H](CC(C)C)C(=O)N1CCC[C@H]1C(=O)N1CCC[C@H]1C(=O)N[C@H](C(=O)N[C@@H](CC(N)=O)C(=O)N[C@H](C(=O)NCC(=O)N[C@@H](CO)C(=O)N[C@@H](CC(N)=O)C(=O)N[C@H](C(=O)N1CCC[C@H]1C(N)=O)[C@@H](C)O)C(C)C)[C@@H](C)O)N(C)C(=O)CN(C)C(=O)[C@H](Cc1ccccc1)NC(=O)[C@H](CC(N)=O)NC(=O)[C@H](CC(N)=O)NC(=O)[C@H](CO)NC(=O)[C@H](CO)NC(=O)[C@H](Cc1c[nH]cn1)NC(=O)[C@H](Cc1c[nH]cn1)NC(=O)[C@H](CC(C)C)NC(=O)[C@H](Cc1ccccc1)NC(=O)[C@H](CCC(=O)O)NC(=O)[C@H](C)NC(=O)[C@H](CC(C)C)NC(=O)[C@H](CCCNC(=N)N)NC(=O)[C@H](CCC(N)=O)NC(=O)[C@@H](NC(=O)[C@H](C)NC(=O)[C@@H]1CSSC[C@H](NC(=O)[C@H](CCCNC(=N)N)NC(=O)CC[C@H](NC(=O)CCCCCCCCCCCCCCCCCCC(=O)O)C(=O)O)C(=O)N[C@@H](CC(N)=O)C(=O)N[C@@H]([C@@H](C)O)C(=O)N[C@@H](C)C(=O)N[C@@H]([C@@H](C)O)C(=O)N1)[C@@H](C)O [Compound 176, [19CD]-isoGlu-RC()NTATC()ATQRLAEFLHHSSNNF-Gly(Me)-Ile(Me)-LPPTNVGSNTP-NH2] ({C20 diacid-γGlu}-RCNTATCATQRLAEFLHHSSNNF[Sar][NMeI]LPPTNVGSNTP-NH2; disulfide 2-7) | – | – | – | 81 | 24.4 | 23.8 |
